How the values were obtained:
Settings in all cases: compound 10.0 µM
MYO3A (human) = MYO3A (human) (UniProt Q8NEV4)
EPHA6 (human) = EPHA6 (human) (UniProt Q9UF33)
RPS6KA5 KD1 (human) = RPS6KA5 KD1 (human) (UniProt O75582)
SBK1 (human) = SBK1 (human) (UniProt Q52WX2)
CDK13 (human) = CDK13 (human) (UniProt Q14004)
TTK (human) = TTK (human) (UniProt P33981)
AXL (human) = AXL (human) (UniProt P30530)
[1] = system: FLT3 (human), P36888 [ITD]
MAP3K1 (human) = MAP3K1 (human) (UniProt Q13233)
ROCK1 (human) = ROCK1 (human) (UniProt Q13464)
FGFR4 (human) = FGFR4 (human) (UniProt P22455)
AKT3 (human) = AKT3 (human) (UniProt Q9Y243)
AKT3 (human), sequence (Q9Y243 whole entry, looked up): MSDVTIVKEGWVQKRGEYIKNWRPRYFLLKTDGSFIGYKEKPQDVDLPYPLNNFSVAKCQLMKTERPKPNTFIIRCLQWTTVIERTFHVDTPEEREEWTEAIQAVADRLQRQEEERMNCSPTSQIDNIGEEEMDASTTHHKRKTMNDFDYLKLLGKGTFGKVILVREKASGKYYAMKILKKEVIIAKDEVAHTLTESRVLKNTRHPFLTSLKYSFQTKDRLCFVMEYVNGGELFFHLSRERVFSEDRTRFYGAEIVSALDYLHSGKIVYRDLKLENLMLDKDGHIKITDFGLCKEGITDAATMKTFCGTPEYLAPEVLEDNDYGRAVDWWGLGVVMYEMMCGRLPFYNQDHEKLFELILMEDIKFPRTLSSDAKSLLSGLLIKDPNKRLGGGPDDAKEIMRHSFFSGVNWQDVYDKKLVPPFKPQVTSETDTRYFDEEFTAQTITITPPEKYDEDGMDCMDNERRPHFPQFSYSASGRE

MYLK (human) = MYLK (human) (UniProt Q15746)
CDK5 (human) = CDK5 (human) (UniProt Q00535)
CDK5 (human), sequence (Q00535 whole entry, looked up): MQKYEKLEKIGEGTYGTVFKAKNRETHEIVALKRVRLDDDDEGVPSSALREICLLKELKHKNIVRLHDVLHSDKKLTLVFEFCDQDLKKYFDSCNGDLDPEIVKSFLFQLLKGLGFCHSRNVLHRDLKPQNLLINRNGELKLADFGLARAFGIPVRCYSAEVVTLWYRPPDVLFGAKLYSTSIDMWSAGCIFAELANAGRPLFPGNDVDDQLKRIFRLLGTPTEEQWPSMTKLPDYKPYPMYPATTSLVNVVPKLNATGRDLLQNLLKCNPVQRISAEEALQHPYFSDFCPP

NIM1 (human) = NIM1 (human) (UniProt Q8IY84)
[2] = target: JAK1 JH2 pseudokinase (human) (UniProt P23458)
AURKA (human) = AURKA (human) (UniProt O14965)
FGFR1 (human) = FGFR1 (human) (UniProt P11362)
PRKG2 (human) = PRKG2 (human) (UniProt Q13237)
MAP4K2 (human) = MAP4K2 (human) (UniProt Q12851)
ACVRL1 (human) = ACVRL1 (human) (UniProt P37023)
TNK1 (human) = TNK1 (human) (UniProt Q13470)
NEK11 (human) = NEK11 (human) (UniProt Q8NG66)
NEK11 (human), sequence (Q8NG66 whole entry, looked up): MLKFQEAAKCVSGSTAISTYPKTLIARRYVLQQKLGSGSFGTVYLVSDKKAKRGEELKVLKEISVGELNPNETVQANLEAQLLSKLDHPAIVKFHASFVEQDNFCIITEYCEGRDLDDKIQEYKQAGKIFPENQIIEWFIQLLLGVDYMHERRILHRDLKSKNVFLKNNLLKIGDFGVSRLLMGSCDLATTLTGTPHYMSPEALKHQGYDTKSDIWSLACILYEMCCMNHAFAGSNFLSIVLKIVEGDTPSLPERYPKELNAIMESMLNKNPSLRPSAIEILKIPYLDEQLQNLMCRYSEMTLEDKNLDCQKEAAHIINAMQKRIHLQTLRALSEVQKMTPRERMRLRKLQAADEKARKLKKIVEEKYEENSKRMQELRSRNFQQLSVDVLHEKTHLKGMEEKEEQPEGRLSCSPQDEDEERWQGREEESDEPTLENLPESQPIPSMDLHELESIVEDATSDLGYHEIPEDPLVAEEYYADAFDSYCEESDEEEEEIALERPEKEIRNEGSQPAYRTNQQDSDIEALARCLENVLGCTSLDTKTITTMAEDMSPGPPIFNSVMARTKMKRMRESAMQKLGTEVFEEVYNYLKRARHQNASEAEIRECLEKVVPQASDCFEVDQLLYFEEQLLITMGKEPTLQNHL

WEE1 (human) = WEE1 (human) (UniProt P30291)
ULK2 (human) = ULK2 (human) (UniProt Q8IYT8)
[3] = target: JAK3 JH1 catalytic (human) (UniProt P52333)
PRKCQ (human) = PRKCQ (human) (UniProt Q04759)
NEK9 (human) = NEK9 (human) (UniProt Q8TD19)
STK38 (human) = STK38 (human) (UniProt Q15208)
GRK1 (human) = GRK1 (human) (UniProt Q15835)
FER (human) = FER (human) (UniProt P16591)
RPS6KA4 KD1 (human) = RPS6KA4 KD1 (human) (UniProt O75676)
EIF2AK1 (human) = EIF2AK1 (human) (UniProt Q9BQI3)
HUNK (human) = HUNK (human) (UniProt P57058)
MST1R (human) = MST1R (human) (UniProt Q04912)
MINK1 (human) = MINK1 (human) (UniProt Q8N4C8)
MINK1 (human), sequence (Q8N4C8 whole entry, looked up): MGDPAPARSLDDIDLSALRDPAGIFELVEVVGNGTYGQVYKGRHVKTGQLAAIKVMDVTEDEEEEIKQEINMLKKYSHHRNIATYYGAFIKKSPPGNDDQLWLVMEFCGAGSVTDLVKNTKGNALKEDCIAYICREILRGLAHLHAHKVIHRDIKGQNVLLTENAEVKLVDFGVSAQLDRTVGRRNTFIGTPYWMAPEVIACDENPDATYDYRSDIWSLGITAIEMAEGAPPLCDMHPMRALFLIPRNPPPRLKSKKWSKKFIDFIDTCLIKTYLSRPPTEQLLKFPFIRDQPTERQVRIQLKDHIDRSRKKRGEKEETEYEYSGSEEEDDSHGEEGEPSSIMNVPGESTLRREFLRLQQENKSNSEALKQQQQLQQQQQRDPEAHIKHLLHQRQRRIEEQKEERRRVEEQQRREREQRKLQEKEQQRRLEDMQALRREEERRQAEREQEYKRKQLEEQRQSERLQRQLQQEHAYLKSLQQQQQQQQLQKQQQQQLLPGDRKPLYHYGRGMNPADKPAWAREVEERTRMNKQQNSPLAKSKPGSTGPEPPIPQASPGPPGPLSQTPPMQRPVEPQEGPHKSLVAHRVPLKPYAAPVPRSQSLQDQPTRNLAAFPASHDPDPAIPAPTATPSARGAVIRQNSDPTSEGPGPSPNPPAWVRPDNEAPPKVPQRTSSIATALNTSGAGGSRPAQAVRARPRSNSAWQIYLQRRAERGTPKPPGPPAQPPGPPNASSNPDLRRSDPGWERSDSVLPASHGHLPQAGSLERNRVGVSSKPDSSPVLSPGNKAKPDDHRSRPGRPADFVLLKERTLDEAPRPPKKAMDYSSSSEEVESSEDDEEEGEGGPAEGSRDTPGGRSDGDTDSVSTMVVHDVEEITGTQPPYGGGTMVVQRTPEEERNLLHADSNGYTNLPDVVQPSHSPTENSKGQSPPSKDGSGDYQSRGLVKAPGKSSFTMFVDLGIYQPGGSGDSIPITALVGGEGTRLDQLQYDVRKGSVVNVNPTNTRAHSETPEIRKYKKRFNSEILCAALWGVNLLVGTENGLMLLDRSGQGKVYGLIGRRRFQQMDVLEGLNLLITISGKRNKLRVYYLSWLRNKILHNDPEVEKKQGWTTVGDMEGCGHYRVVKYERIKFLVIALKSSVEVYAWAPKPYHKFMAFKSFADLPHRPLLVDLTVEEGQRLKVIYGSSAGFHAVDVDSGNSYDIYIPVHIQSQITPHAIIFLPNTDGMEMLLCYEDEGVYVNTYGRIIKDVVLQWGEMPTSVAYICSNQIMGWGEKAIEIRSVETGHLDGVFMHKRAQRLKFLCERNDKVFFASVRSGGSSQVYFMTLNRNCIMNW

MAP2K1 (human) = MAP2K1 (human) (UniProt Q02750)
SGK3 (human) = SGK3 (human) (UniProt Q96BR1)
SGK3 (human), sequence (Q96BR1 whole entry, looked up): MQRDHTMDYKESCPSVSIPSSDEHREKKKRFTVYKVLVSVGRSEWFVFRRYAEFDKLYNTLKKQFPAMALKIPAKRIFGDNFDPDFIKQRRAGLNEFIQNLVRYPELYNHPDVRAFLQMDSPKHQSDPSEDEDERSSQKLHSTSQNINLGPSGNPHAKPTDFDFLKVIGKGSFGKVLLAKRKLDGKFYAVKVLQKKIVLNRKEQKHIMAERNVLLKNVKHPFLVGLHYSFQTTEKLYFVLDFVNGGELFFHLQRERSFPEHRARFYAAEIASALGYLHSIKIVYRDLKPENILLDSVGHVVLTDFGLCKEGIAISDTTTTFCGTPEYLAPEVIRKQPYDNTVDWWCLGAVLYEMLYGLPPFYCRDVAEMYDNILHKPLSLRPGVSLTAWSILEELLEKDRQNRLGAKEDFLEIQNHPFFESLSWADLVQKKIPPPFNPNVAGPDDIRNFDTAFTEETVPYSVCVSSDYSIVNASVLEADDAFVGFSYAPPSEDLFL

MAP3K2 (human) = MAP3K2 (human) (UniProt Q9Y2U5)
RIOK2 (human) = RIOK2 (human) (UniProt Q9BVS4)
TYRO3 (human) = TYRO3 (human) (UniProt Q06418)
SIK1 (human) = SIK1 (human) (UniProt P57059)

MYO3A (human), sequence (Q8NEV4 whole entry, looked up): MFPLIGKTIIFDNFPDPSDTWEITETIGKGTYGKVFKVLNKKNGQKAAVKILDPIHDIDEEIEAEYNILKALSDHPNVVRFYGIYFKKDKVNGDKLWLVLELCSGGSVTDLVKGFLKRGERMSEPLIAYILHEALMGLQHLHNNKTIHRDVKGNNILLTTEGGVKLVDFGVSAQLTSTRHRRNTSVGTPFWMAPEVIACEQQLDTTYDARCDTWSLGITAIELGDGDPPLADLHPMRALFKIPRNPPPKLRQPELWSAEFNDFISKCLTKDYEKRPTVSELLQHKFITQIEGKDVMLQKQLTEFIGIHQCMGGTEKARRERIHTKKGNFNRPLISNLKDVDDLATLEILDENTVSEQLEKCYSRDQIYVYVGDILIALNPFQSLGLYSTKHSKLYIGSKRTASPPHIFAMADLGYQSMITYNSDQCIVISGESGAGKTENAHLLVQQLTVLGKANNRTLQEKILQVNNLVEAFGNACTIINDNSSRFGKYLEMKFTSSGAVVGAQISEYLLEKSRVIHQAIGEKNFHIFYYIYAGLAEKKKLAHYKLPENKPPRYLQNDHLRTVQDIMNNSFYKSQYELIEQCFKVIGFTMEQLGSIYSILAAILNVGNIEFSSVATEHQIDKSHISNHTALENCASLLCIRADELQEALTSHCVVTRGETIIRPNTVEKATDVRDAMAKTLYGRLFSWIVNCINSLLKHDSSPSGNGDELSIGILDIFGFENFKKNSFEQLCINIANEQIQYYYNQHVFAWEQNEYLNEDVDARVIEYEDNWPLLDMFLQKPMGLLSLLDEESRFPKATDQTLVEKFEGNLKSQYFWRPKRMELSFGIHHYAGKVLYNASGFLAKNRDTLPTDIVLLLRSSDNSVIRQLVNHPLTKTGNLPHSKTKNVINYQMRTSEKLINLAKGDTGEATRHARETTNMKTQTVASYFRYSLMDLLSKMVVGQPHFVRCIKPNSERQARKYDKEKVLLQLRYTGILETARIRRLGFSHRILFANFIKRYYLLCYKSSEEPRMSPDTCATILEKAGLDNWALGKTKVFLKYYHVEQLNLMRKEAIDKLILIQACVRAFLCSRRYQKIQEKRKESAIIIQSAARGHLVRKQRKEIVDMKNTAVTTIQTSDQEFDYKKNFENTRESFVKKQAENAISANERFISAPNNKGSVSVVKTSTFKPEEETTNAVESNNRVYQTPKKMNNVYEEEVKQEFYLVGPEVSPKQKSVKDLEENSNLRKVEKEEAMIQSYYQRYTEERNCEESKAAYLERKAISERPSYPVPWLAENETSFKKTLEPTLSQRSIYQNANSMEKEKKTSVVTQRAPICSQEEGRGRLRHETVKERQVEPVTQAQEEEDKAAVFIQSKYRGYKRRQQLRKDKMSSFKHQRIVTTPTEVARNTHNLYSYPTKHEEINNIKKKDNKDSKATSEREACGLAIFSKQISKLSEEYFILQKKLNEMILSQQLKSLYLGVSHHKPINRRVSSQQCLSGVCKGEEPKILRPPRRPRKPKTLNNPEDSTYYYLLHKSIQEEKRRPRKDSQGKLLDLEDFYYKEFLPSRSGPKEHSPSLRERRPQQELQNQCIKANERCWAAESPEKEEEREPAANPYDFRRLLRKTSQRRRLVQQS

In the case of CNC(=O)c1cc(Oc2ccc(NC(=O)Nc3ccc(Cl)c(C(F)(F)F)c3)cc2)ccn1, the per cent of control (MYO3A (human)) is reported as 44%, the per cent of control (EPHA6 (human)) is reported as 1.6% and the per cent of control (RPS6KA5 KD1 (human)) is reported as 77%. The per cent of control (SBK1 (human)) was 100%, the per cent of control (CDK13 (human)) was 98% and the per cent of control (TTK (human)) was 15%. It also gave a per cent of control (AXL (human)) of 5.4%, a per cent of control [1] of 0.5% and a per cent of control (MAP3K1 (human)) of 89%. The per cent of control (ROCK1 (human)) was 84%, the per cent of control (FGFR4 (human)) was 43% and the per cent of control (AKT3 (human)) was 90%. For the same compound, the per cent of control (MYLK (human)) was 100%, the per cent of control (CDK5 (human)) was 22% and the per cent of control (NIM1 (human)) was 100%. The per cent of control [2] was 97%, the per cent of control (AURKA (human)) was 83% and the per cent of control (FGFR1 (human)) was 3.4%. The per cent of control (PRKG2 (human)) was 100%, the per cent of control (MAP4K2 (human)) was 93% and the per cent of control (ACVRL1 (human)) was 100%. It also gave a per cent of control (TNK1 (human)) of 14%, a per cent of control (NEK11 (human)) of 99% and a per cent of control (WEE1 (human)) of 100%. The per cent of control (ULK2 (human)) was 94%, the per cent of control [3] was 100% and the per cent of control (PRKCQ (human)) was 76%. The per cent of control (NEK9 (human)) was 48%, the per cent of control (STK38 (human)) was 100% and the per cent of control (GRK1 (human)) was 100%. It also gave a per cent of control (FER (human)) of 77%, a per cent of control (RPS6KA4 KD1 (human)) of 81% and a per cent of control (EIF2AK1 (human)) of 100%. For the same compound, the per cent of control (HUNK (human)) was 90%, the per cent of control (MST1R (human)) was 76% and the per cent of control (MINK1 (human)) was 80%. For the same compound, the per cent of control (MAP2K1 (human)) was 95%, the per cent of control (SGK3 (human)) was 72% and the per cent of control (MAP3K2 (human)) was 100%. For the same compound, the per cent of control (RIOK2 (human)) was 48%, the per cent of control (TYRO3 (human)) was 100% and the per cent of control (SIK1 (human)) was 79%.

For CNC(=O)c1cc(Oc2ccc(NC(=O)Nc3ccc(Cl)c(C(F)(F)F)c3)cc2)cc[n+]1[O-], the per cent of control (MYO3A (human)) was 14%, the per cent of control (EPHA6 (human)) was 6.6% and the per cent of control (RPS6KA5 KD1 (human)) was 59%. The per cent of control (SBK1 (human)) was 100%, the per cent of control (CDK13 (human)) was 40% and the per cent of control (TTK (human)) was 9%. The per cent of control (AXL (human)) was 1.8%, the per cent of control [1] was 0.4% and the per cent of control (MAP3K1 (human)) was 100%. It also gave a per cent of control (ROCK1 (human)) of 23%, a per cent of control (FGFR4 (human)) of 39% and a per cent of control (AKT3 (human)) of 93%. For the same compound, the per cent of control (MYLK (human)) was 100%, the per cent of control (CDK5 (human)) was 12% and the per cent of control (NIM1 (human)) was 100%. It also gave a per cent of control [2] of 96%, a per cent of control (AURKA (human)) of 26% and a per cent of control (FGFR1 (human)) of 9.7%. It also gave a per cent of control (PRKG2 (human)) of 100%, a per cent of control (MAP4K2 (human)) of 66% and a per cent of control (ACVRL1 (human)) of 96%. The per cent of control (TNK1 (human)) was 6.6%, the per cent of control (NEK11 (human)) was 100% and the per cent of control (WEE1 (human)) was 100%. For the same compound, the per cent of control (ULK2 (human)) was 75%, the per cent of control [3] was 78% and the per cent of control (PRKCQ (human)) was 80%. It also gave a per cent of control (NEK9 (human)) of 35%, a per cent of control (STK38 (human)) of 100% and a per cent of control (GRK1 (human)) of 100%. It also gave a per cent of control (FER (human)) of 64%, a per cent of control (RPS6KA4 KD1 (human)) of 13% and a per cent of control (EIF2AK1 (human)) of 100%. The per cent of control (HUNK (human)) was 74%, the per cent of control (MST1R (human)) was 30% and the per cent of control (MINK1 (human)) was 2.4%. The per cent of control (MAP2K1 (human)) was 80%, the per cent of control (SGK3 (human)) was 42% and the per cent of control (MAP3K2 (human)) was 100%. The per cent of control (RIOK2 (human)) was 42%, the per cent of control (TYRO3 (human)) was 100% and the per cent of control (SIK1 (human)) was 66%.

Source: the kinase profiling compilation of Christmann-Franck et al. (2016)
